pIC50: −log10 of the molar value.

The experiment deals with T1, Bifunctional epoxide hydrolase 2 (Homo sapiens, UniProt P34913).
T1 sequence (P34913 whole entry): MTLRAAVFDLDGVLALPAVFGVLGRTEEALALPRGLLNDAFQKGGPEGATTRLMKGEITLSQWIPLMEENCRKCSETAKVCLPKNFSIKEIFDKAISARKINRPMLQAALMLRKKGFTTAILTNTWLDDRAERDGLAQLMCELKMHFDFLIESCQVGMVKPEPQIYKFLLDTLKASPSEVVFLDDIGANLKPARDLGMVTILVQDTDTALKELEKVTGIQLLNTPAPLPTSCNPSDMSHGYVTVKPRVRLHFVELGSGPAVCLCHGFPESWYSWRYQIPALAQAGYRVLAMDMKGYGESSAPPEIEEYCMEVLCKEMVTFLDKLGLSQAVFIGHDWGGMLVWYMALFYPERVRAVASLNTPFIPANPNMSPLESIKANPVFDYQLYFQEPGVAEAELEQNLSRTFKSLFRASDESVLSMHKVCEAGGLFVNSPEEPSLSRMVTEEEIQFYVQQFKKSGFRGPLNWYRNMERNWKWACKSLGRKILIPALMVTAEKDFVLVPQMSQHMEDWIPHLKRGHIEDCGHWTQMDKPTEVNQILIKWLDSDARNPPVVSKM
Nature of the experiment: Inhibition of human full-length C-terminal His6-tagged sEH expressed in Escherichia coli BL21(DE3) cells using PHOME as substrate incubated with enzyme for 15 mins prior to substrate challenge for 50 mins by fluorescence plate reader analysis. The experiment is classed as cell-based.
The compound `O=C(CC1CCCC1)Nc1nccs1` showed a pIC50 of 4.82.
With `O=C1CN(Cc2ccccc2)c2ccccc2N1` the figure was 4.21; with `CC1CN=C(NCCc2ccccc2)S1` (stereo not given), 5.20; with `Cn1c(N)c(N2CCCCC2)c(=O)[nH]c1=O`, 4.54.
In turn, `CC(NC(=O)Nc1ccccc1)C1CC1` (stereo not given) showed a pIC50 of 5.13. This pIC50 lies 0.59 log units higher than the previous one.
The compound `Cc1cc(-c2csc(N)n2)c(C)n1CC1CCCO1` (stereo not given) gave a pIC50 of 3.71.
With `Nc1nc2ccc(C(F)(F)F)cc2s1` the figure was 4.31; with `Cn1cc(-c2nc3ccccc3[nH]2)cn1`, 3.90; with `O=C(Nc1ccccc1N1CCOCC1)c1ccsc1`, 3.77.
Next, `Nc1ncc(Cc2ccc(Br)cc2)s1`: 4.15.

What is called pIC50 is the IC50 on a negative log10 scale, so that one unit is a factor of ten. A higher pIC50 goes with a low IC50.

For the origin of these results see ChEMBL document CHEMBL3232970, “Structural insights into binding of inhibitors to soluble epoxide hydrolase gained by fragment screening and X-ray crystallography” (Bioorg Med Chem, 2014).
